Experimental data from BindingDB's records for doi:10.1016/S0960-894X(00)80062-1 (1994).

Target: Squalene synthase (Candida albicans)
Assay: In vitro inhibitory activity against Candida albicans squalene synthase

Molecule C=C(CCC12CCC(C(=O)O)(O1)C(O)(C(=O)O)C(C(=O)O)O2)[C@@H](OC(C)=O)[C@H](C)Cc1ccccc1 (stereo partly drawn) [1-((4S,5R)-4-Acetoxy-5-methyl-3-methylene-6-phenyl-hexyl)-4-hydroxy-2,8-dioxa-bicyclo[3.2.1]octane-3,4,5-tricarboxylic acid] has an IC50 of 430 nM.
